Experimental data reported in US20250020635A1, “ASSAY METHODS AND USES THEREOF FOR SCREENING ALZHEIMER'S DISEASE TREATMENT COMPOUNDS” (priority 2023, published 2025).
Read-outs that look alike come from different tables or passages of the source.

Target: T1, PLCγ2-HiBit (Homo sapiens, UniProt P16885)
T1 construct: expressed in transfected cells; host or cells: HMC3 cells
T1 sequence (P16885 1-1265): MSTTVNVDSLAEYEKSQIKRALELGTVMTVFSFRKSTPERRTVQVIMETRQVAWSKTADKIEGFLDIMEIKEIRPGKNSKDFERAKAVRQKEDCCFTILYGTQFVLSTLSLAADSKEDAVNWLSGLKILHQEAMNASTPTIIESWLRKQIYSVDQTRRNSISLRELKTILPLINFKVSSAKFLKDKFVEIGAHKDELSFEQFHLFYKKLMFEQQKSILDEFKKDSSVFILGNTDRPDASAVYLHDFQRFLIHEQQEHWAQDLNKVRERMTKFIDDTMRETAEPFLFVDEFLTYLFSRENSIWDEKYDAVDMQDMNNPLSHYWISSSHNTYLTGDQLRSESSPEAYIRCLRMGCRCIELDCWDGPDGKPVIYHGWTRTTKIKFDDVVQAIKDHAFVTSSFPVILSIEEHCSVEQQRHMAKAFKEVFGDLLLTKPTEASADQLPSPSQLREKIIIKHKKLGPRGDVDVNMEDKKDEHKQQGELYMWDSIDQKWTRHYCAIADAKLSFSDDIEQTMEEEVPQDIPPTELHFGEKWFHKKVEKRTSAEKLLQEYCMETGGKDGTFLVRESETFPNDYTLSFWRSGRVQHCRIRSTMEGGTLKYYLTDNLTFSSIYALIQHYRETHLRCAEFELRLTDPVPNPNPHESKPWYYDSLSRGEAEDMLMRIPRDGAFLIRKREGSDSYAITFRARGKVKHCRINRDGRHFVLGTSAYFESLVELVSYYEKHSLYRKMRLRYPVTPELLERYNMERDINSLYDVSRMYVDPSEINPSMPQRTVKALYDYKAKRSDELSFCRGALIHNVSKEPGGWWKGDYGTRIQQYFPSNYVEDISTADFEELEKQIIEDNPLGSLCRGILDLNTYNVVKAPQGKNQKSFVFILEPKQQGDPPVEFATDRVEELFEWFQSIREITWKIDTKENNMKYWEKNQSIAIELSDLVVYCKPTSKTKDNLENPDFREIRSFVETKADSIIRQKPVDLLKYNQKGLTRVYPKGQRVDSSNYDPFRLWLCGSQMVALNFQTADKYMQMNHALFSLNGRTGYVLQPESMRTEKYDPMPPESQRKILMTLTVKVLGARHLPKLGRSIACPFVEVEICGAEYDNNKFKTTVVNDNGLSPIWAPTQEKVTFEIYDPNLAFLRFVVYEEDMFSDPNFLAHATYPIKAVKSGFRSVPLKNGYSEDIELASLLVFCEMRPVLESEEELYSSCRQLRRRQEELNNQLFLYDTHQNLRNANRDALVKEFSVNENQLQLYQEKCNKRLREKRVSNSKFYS
Experiment: Cellular thermal shift assay (SplitLuc CETSA), PLCγ2-HiBit in HMC3 cells
Format: cell-based
Conditions: for PLCγ2-HiBit %, percent luminescence at highest dose compared to control (DMSO): 100 μM
Excerpt: These compounds have been evaluated using a wide variety of assay classes namely target engagement utilizing cellular thermal shift assay (CETSA),^34 affinity selection mass spectrometry (ASMS),^35 biochemical activity employing the fluorogenic probe XY-69,^36 and cellular activity testing for phagocytosis. Cellular Thermal Shift Assays (CETSA) assess cellular target engagement by quantifying changes in protein thermal stability upon ligand binding to endogenous proteins in intact cells.^34 For SAR studies, a split Nano Luciferase (SplitLuc CETSA) version of the assay was utilized to provide sufficient throughput.^37,38 HMC3 cells were stably transfected with PLCγ2-HiBit to enable protein expression in a physiologically relevant cellular context. The thermal stability of this HiBit-labeled protein in intact cells was measured in the following two formats. In the initial screen, using 96-well plates, cells were treated with FBS analogs at a single concentration (100 μM) at 37° C. for 60 min and then exposed to a 3-minute isothermal heating step at 45.9° C. (experimentally determined Tm of PLCγ2-HiBit). Luminescence detection was then conducted with the Nano-Glo HiBit Lytic detection kit (Promega, Cat. N3040).^38 Compound treatment was performed in triplicate, and raw signals were normalized to the mean of the controls (in the same plate) as % of control. When the difference in compound-treated cells >control mean+3SD, the compound was considered positive and selected for further testing with dose-response CETSA. In the dose response CETSA, cells were treated with decreasing concentrations from 100 μM with 1:3 serial dilutions to generate an 8-point curve. An AC50 was calculated with the % of control data using a four-parameter logistic curve regression model, and the percent luminescence remaining at the highest concentration is also reported for the compounds when the difference from the DMSO control is greater than 3× the standard deviation (SD). Otherwise, an AC50 was not calculated.

Row | Compound | PLCγ2-HiBit %, percent luminescence at highest dose compared to control (DMSO) [%] | PLCy2-HiBit % @100 (Table 1) [%] | AC50 (Table 1, CETSA dose response, read-out: AC50) [µM] | AC50 (Table 5, 8-point dose response from 100 μM, HMC3 cells, 45.9° C., read-out: AC50, concentration that induced a half-maximum loss of luminesce compared to control) [µM]
1 | Cc1cc(C)c(S(=O)(=O)NC2CCCNC2)c(C)c1 (stereo not drawn) [Compound 11] | 64 |  |  | 
2 | Cc1cc(C)c(S(=O)(=O)Nc2ccccc2C(F)(F)F)c(C)c1 [Compound 2, o-3M3FBS, reference compound] | 102 | 102 |  | 
3 | Cc1cc(C)c(S(=O)(=O)Nc2cccc(C(F)(F)F)c2)c(C)c1 [Compound 1, 2,4,6-trimethyl-N-(meta-3-trifluoromethyl-phenyl)-benzenesulfonamide, reference compound] | 105 | 105 |  | 
4 | O=S(=O)(Nc1ccc(Br)cc1F)c1cccs1 [Compound 8] | 66 | 66 | > 100 | > 100
